The structures appear in SMILES notation.

Test [1] deals with T1, human sex Hormone Binding Globulin (SHBG) (Homo sapiens, UniProt P04278).
T1 construct: made in house; host or cells: transgenic mouse (purified from serum)
T1 sequence (P04278 30-402): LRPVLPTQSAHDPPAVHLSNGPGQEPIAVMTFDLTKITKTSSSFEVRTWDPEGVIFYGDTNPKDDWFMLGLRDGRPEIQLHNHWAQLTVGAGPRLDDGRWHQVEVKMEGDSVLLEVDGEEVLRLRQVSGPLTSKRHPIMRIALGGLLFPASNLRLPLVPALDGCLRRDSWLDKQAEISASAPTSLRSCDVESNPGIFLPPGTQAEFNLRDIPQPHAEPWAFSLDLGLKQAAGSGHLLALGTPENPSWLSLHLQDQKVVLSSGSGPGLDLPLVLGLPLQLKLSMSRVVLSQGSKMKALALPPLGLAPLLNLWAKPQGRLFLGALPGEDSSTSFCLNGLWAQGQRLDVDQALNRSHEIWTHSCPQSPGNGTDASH
As to the kind of experiment: Competitive steroid-binding assay, SHBG. The following applies: [3H]DHT or [3H]estradiol as labeled ligands. On the procedure: Human SHBG was treated for 30 min at room temperature with a dextran-coated charcoal (DCC) suspension in phosphate buffered saline (PBS) to remove any steroid ligand. After centrifugation (2,000×g for 10 min) to sediment the DCC, the supernatant containing the human SHBG was diluted in PBS to a concentration of 1 nM based on its steroid binding capacity.
The average amounts of [^3H]labeled ligands bound to SHBG at each concentration of competitor (B) were expressed as a percentage of the average amounts of [^3H]labeled ligands bound to SHBG in the absence of competitor (B0), and were plotted against the concentration of competitor in each assay tube.

In test [2] the test system is ovariectomized adult rats. The test is described as follows: Vaginal cornification bioassay in ovariectomized rats. The format is in vivo, rat. The conditions noted are these: 0.05 mg/kg/day. The source says:
Uterine weight increase in the rat is more commonly used as a measure of estrogenicity. […] In the early 1920s it was discovered that follicular fluid from the pig ovary contained a factor(s) that caused cornification/keratinization of the vaginal epithelium in the rat (Allen and Doisy, 1923, JAMA, 81,819-821; Allen and Doisy, 1924, Am. J. Physiol., 69, 577-588). The so-called vaginal cornification response in rats subsequently provided a bioassay for testing estrogenicity. Vaginal epithelial cornification/keratinization in ovariectomized rats can be produced only by compounds considered to be true estrogens (Jones et al, 1973, Fert. Steril. 24, 284-291). […] Adult intact female CD rats were ovariectomized to induce estrogen deficiency. […] Castrate vaginal smears are indicative that complete ovanectomy was achieved. Treatment commenced following completion of the 7 days of smearing (day 0=first day of dosing). Animals were dosed, once daily for 7 consecutive days. Daily vaginal lavages continued to be obtained for 7 days after dosing was initiated in order to detect vaginal cornification, as an indication of an estrogenic response. A drop of vaginal washings was placed on a glass slide and examined by light microscopy to detect the presence or absence of cornified epithelial cells. Vaginal lavages were obtained prior to dosing on days 0-6 and prior to necropsy on day 7. The vaginal cornification bioassay was performed in order to determine the estrogenic profile of E4 when given subcutaneously (sc) to ovariectomized adult rats. E2 was used as a positive control. […] The vaginal cornification bioassay was performed in order to determine the estrogenic profile of E4 when given orally (po) to ovariectomized adult rats. EE was used as a positive control. […] A vaginal estrogenic response occurred in all rats (8/8) given 50 μg/kg/day EE po by day 7 (Table 2).

On to `C[C@]12CCC(=O)C[C@@H]1CC[C@@H]1[C@@H]2CC[C@]2(C)[C@@H](O)CC[C@@H]12` [5α-dihydrotestosterone], for which the “relative binding affinity for human SHBG” value in test [1] is given as “in this order, show an increased relative binding affinity”.
In the case of `C[C@]12CC[C@@H]3c4ccc(O)cc4CC[C@H]3[C@@H]1CC[C@@H]2O` [E2, 17β-estradiol, reference compound], the “Number of Rats Exhibiting Estrogenic Response/Number of Rats Treated” value is 0/8 in test [2] (sc, Day 0); 0/8 in test [2] (sc, Day 1); 8/8 in test [2] (sc, Day 2); 8/8 in test [2] (sc, Day 3); 8/8 in test [2] (sc, Day 4); 8/8 in test [2] (sc, Day 5). The “Number of Rats Exhibiting Estrogenic Response/Number of Rats Treated” value in test [2] (sc, Day 6) is listed as 8/8; in test [2] (sc, Day 7), 8/8.
Take `C#C[C@]1(O)CC[C@H]2[C@@H]3CCc4cc(O)ccc4[C@H]3CC[C@@]21C` [EE, 17α-ethinylestradiol, reference compound]: the “Number of Rats Exhibiting Estrogenic Response/Number of Rats Treated” value in test [2] (po, Day 0) is recorded as 0/8; in test [2] (po, Day 1), 1/8; in test [2] (po, Day 2), 3/8; in test [2] (po, Day 3), 8/8; in test [2] (po, Day 4) it was 8/8; in test [2] (po, Day 5), 8/8. Besides, the “Number of Rats Exhibiting Estrogenic Response/Number of Rats Treated” value in test [2] (po, Day 6) was 8/8; in test [2] (po, Day 7), 8/8.
Regarding `C[C@]12CC[C@H]3[C@@H](CCC4=CC(=O)CC[C@@]43C)[C@@H]1CC[C@@H]2O` [testosterone], the “relative binding affinity for human SHBG” value in test [1] is reported as “in this order, show an increased relative binding affinity”.

For the origin of these results see patent publication US7723320B2, “Use of estrogen compounds to increase libido in women” (Pantarhei Bioscience B.V., priority 2001, dated 2010).
